In brackets after ≈: the same amount, converted by molar mass. Where two headings read alike, the source gives them in different places.
Key:
Experiment in all cases: MIC microtiter plate test, axilla bacteria
Type in all cases: cell-based
[1] = test system: Ax 12 Corynebacterium jeikeium; details: Corynebacterium jeikeium, 24 h, read-out: Minimal inhibitory concentration (MIC)
Description: (§1) The different bacterial strains had been isolated from the human axilla by current microbiological practice. They were taxonomically identified by cell morphology, gram-reaction and biochemical tests included in the Api coryne test kit (BioMerieux, France). Strain Staphylococcus epidermidis Ax25 was identified by fatty acid methyl ester analysis (FAME; German type strain collection DSMZ, Germany). The strains were maintained on Tryptic soy broth plates, this standard medium being amended with 5 g per Litre of Tween 80 and 1 g of Soybean lecithin. Plates were incubated at 36° C for a period 48 hours. The bacteria were then swabbed from the plates and suspended in 4 ml of Müller-Hinton broth amended with 100 mg of Tween80 per Litre (MH-Tween) and incubated again at 36° C for 16 hours. Following incubation the bacterial suspensions were diluted in MH-Tween to obtain a final cell density of 10^6 colony forming units per ml. For each fragrance material four microtiter plates were used in the example, each microtiter plate having 8 rows, A-H, and 12 columns, 1-12. To each column a diluted suspension of a different test organism was distributed, 100 µl per well. 1% stock solutions of the fragrance materials were then prepared in MH-Tween broth. The fragrance material was dispersed by ultrasonication into the aqueous medium to obtain a homogenous emulsion. 100 µl per well of this emulsion was then added to the first row of the microtiter plates already containing the target organisms. Serial dilution series were then prepared starting at row A and continuing until row G, each time removing 100 µl from a well and transferring it to the next well. In this way fragrance concentrations of 0.5%, 0.25%, 0.125%, 0.0625%, 0.03125%, 0.0156% and 0.0078% were tested for their antibacterial efficacy. The reference compound Triclosan was tested at 16 fold lower concentrations. The plates were covered with plastic films and incubated for 24 h at 36° C with shaking at 250 rpm. The turbidity developing in the microtiter plates was then examined after 24 h to determine microbial growth. The minimal concentration of fragrance inhibiting the growth of an organism by at least 80% was determined as the minimal inhibitory concentration (MIC).
(§2) Ax 25 was identified as Staphylococcus epidermidis by FAME analysis. Identification with the Api Coryne test kit yielded the following species assignments for the remainder of the strains: Ax 26 Corynebacterium sp.; Ax 3 Corynebacterium bovis; Ax 7 Corynebacterium group G; Ax 10 Corynebacterium jeikeium; Ax 11 Corynebacterium jeikeium; Ax 12 Corynebacterium jeikeium; Ax 15 Corynebacterium jeikeium; Ax 20 Corynebacterium striatum/amycolatum; Ax 19 Corynebacterium jeikeium. The strains were isolated from the axilla of 8 human volunteers. Based on biochemical tests and colony morphology all strains were distinct from each other, even the several strains all belonging to Corynebacterium jeikeium.

[2] = test system: Ax 3 Corynebacterium bovis; details: Corynebacterium bovis, 24 h, read-out: Minimal inhibitory concentration (MIC)
Description: as §1, §2

[3] = test system: Ax 20 Corynebacterium striatum/amycolatum; details: Corynebacterium striatum, 24 h, read-out: Minimal inhibitory concentration (MIC)
Description: as §1, §2

[4] = test system: Ax 15 Corynebacterium jeikeium; details: for MIC: Corynebacterium jeikeium, 24 h
Description: as §1, §2

[5] = test system: Ax 11 Corynebacterium jeikeium; details: Corynebacterium jeikeium, 24 h, read-out: Minimal inhibitory concentration (MIC)
Description: as §1, §2

[6] = test system: Ax 26 Corynebacterium sp.; details: for MIC: Corynebacterium
Description: as §1, §2

[7] = test system: Ax 19 Corynebacterium jeikeium; details: 24 h, read-out: Minimal inhibitory concentration (MIC)
Description: as §1, §2

[8] = test system: Ax 10 Corynebacterium jeikeium; details: Corynebacterium jeikeium, 24 h, read-out: Minimal inhibitory concentration (MIC)
Description: as §1, §2

[9] = test system: Staphylococcus epidermidis Ax25; details: for MIC: Staphylococcus epidermidis, AX25, 24 h
Description: as §1, §2

[10] = test system: Ax 7 Corynebacterium group G; details: for MIC: Corynebacterium, 24 h
Description: as §1, §2

[11] = read-out: Bacteriostatic activity (concentration needed for at least 80% reduction in growth)
[12] = read-out: Minimal inhibitory concentration (MIC)

SMILES: Oc1cc(Cl)ccc1Oc1ccc(Cl)cc1Cl [Triclosan, 2,4,4'-trichloro-2'-hydroxy-diphenyl-ether]
- MIC [1]: 17 µg/mL (≈ 58.7 µM)
- MIC [2]: 29 µg/mL (≈ 100 µM)
- MIC [3]: 107 µg/mL (≈ 370 µM)
- MIC [4, 11]: 30 µg/mL (≈ 104 µM)
- MIC [4, 12]: 29 µg/mL (≈ 100 µM)
- Bacteriostatic activity (concentration needed for at least 80% reduction in growth) ([4]; Table 8, Corynebact. Ax15, 24 hours): 0.0030 percent (w/v)
- MIC [5]: 29 µg/mL (≈ 100 µM)
- MIC ([6]; Ax26, growth inhibition by at least 80%, 24 h at 36° C, read-out: Minimal inhibitory concentration (MIC)): 15 µg/mL (≈ 51.8 µM)
- MIC ([6]; Table 7, Corynebact. Ax26, 24 hours, read-out: Bacteriostatic activity (concentration needed for at least 80% reduction in growth)): 25 µg/mL (≈ 86.3 µM)
- Bacteriostatic activity (concentration needed for at least 80% reduction in growth) ([6]; Table 8, Corynebact. Ax26, 24 hours): 0.0025 percent (w/v)
- MIC [7]: 39 µg/mL (≈ 135 µM)
- MIC [8]: 20 µg/mL (≈ 69.1 µM)
- MIC [9, 11]: 0.15 µg/mL (≈ 0.518 µM)
- MIC [9, 12]: 0.15 µg/mL (≈ 0.518 µM)
- Bacteriostatic activity (concentration needed for at least 80% reduction in growth) ([9]; Table 8, S. epidermidis, 24 hours): 0.000015 percent (w/v)
- MIC [10, 11]: 25 µg/mL (≈ 86.3 µM)
- MIC [10, 12]: 29 µg/mL (≈ 100 µM)
- Bacteriostatic activity (concentration needed for at least 80% reduction in growth) ([10]; Table 8, Corynebact. Ax7, 24 hours): 0.0025 percent (w/v)

— patent EP1184030A1, “Antibacterial composition comprising trimethylnorbornanylcyclohexanol derivatives” (Givaudan SA, priority 2000, dated 2002)
